The nature of data set [1]: GSH measurement (reactive metabolites). It counts as in vitro ADME. An excerpt:
(§1) The compounds of the invention/examples may have advantages associated with in vitro potency, kill kinetics (i.e. bactericidal effect) in vitro, PK properties, food effect, safety/toxicity (including liver toxicity, coagulation, 5-LO oxygenase), metabolic stability, Ames II negativity, MNT negativity, aqueous based solubility (and ability to formulate) and/or cardiovascular effect e.g. on animals (e.g. anesthetized guinea pig). The data below that was generated/calculated may be obtained using standard methods/assays, for instance that are available in the literature or which may be performed by a supplier (e.g. Microsomal Stability Assay—Cyprotex, Mitochondrial toxicity (Glu/Gal) assay—Cyprotex, as well as literature CYP cocktail inhibition assays). In some instances, GSH was measured (reactive metabolites, glucuronidation) to observe if a dihydrodiol is observed by LCMS (fragmentation ions), which would correspond to a dihydroxylation on the core heterocycle.

The next data set concerns Na Ch. Briefly: CVS Na Ch.
For data set [2] the following is noted: in vivo.
Data set [3] is described as follows: Mitochondrial toxicity (Glu/Gal) assay. In kind it is cell-based.
Text: as §1

In a further data set the test system is Cyp 3A4. Briefly: Cyp 3A4 induction. The note with it: at 1 μM.
The next data set concerns the target Kinase panel. The data set can be described thus: Kinase panel. In kind it is biochemical.
In another data set the test system is Ca Ch. The settings on record: read-out: CVS Ca Ch IC50.
The nature of the next data set: AMES II. In kind it is cell-based.
Text: as §1

The next data set deals with M. tuberculosis H37Rv. The note with it: strain M. tuberculosis H37Rv, inside macrophages; cited from earlier work.

The structures appear in SMILES notation. pIC50: −log10 of the molar value. Values after ≈ are worked out from the molar mass of the structure shown.

One may read the pIC50 as the negative decadic logarithm of the IC50, by convention in mol/L. For orientation: melting point means the temperature of the solid-liquid transition. `CCc1nc2ccc(C#N)cn2c1C(=O)NCc1ccc(N2CCN(S(=O)(=O)C(F)(F)F)C(OC)=N2)c(F)c1` [Compound 73] displayed a melting point of 212.08 °C. Further, the “GSH / reactive metabolites” value in [1] was “no measure of GSH”. In the data set on Na Ch, this molecule showed a negative logarithm of the IC50 (pIC50) of less than 5.00.

As to `O=C(NCc1ccc(N2CCN(S(=O)(=O)C(F)(F)F)C=N2)c(F)c1)c1c(C(F)(F)F)nc2ccccn12` [Compound 152], the “GSH / reactive metabolites” value in data set [1] was “formation of reactive metabolites was blocked”. The bioavailability result in [2] was “good bioavailaibility”. Besides, in [3], the “Glu/Gal assay ratio (mitotoxicity)” value was less than 3.

`CCc1nc2ncc(C)cn2c1C(=O)NCc1ccc(N2CCN(S(=O)(=O)C(F)(F)F)C=N2)c(F)c1` [Compound 161]: the “Cyp 3A4 induction (% control)” value in the data set on Cyp 3A4 is 3.0 % control. For the same molecule, the bioavailability result in [2] was “good bioavailaibility”. The “Glu/Gal assay ratio (mitotoxicity)” value in data set [3] is recorded as less than 3. Further, the Kinase panel result on Kinase panel is on record as “negative”. In addition, in the data set with Ca Ch, the pIC50 is less than 5.00. Further, the “AMES II” value in the data set “AMES II” is “negative”.

Consider `CCc1nc2ccc(Cl)cn2c1C(=O)NCc1ccc(N2CCC(c3ccc(OC(F)(F)F)cc3)CC2)cc1` [Compound Q203], for which the MIC50 in the data set with M. tuberculosis H37Rv is given as 0.28 nM (≈ 0.156 ng/mL).

Source of the values: US20240199611A1, “ANTIBACTERIAL COMPOUNDS” (JANSSEN SCIENCES IRELAND UNLIMITED COMPANY, priority 2021, published 2024).
